Measured values as given in BindingDB's records for patent US20230159469 (Txinno Bioscience, 2023).

Biological target: T1, Ectonucleotide pyrophosphatase/phosphodiesterase family member 1 (Homo sapiens, UniProt P22413)
T1 sequence (P22413 whole entry): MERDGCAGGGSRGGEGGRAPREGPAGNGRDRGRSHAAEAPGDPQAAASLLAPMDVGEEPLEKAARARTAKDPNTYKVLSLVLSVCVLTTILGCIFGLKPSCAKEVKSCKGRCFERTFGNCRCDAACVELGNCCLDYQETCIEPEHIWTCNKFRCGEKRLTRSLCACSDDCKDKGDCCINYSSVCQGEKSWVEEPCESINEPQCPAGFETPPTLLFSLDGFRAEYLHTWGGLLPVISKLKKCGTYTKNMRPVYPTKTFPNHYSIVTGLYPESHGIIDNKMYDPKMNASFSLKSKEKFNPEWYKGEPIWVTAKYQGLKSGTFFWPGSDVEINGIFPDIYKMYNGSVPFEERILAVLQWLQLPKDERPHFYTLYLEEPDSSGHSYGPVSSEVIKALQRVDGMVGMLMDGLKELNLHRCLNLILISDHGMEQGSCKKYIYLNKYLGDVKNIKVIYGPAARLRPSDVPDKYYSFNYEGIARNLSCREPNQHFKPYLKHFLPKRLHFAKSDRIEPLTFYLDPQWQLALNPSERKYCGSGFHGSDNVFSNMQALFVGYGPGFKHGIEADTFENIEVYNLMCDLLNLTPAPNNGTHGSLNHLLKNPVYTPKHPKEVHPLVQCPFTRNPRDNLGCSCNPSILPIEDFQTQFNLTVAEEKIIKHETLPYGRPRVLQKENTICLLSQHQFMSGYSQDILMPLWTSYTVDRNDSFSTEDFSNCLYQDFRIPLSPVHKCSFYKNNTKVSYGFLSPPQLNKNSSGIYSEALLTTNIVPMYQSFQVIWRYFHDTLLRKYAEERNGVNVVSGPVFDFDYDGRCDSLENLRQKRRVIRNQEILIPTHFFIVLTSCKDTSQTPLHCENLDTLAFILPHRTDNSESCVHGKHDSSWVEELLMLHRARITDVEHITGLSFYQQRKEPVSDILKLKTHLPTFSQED
Assay: ENPP1 Enzyme Assay with eGAMP Substrate
Protocol: ENPP1 hydrolyzes nucleotides or nucleotide derivatives to produce nucleoside -5′-monophosphate and pyrophosphate. in addition, ENPP1 hydrolyzes 2′,3′-cGAMP to produce 5′-adenosine monophosphate (AMP) and 5′-guanosine monophosphate (GMP). AMP produced from the reaction is measured using the AMP-Glo kit (Promega). The AMP-Glo kit contains two reagents. The first reagent terminates the AMP-producing enzymatic reaction, removes ATP and converts the produced AMP into ADP. The second reagent converts ADP to ATP which is used to generate luminescence in the luciferase reaction. […] CaCl2, 1 μM ZnCl2, 5% glycerol and 1% DMSO. […] The reaction was initiated by addition of cGAMP (at a final concentration of 5 μM) and reacted at 37 C. for 90 minutes. At the end of the reaction, 10 μl of the AMP-Glo first reagent was added to stop the reaction and the result was stored at room temperature for […]. After storage, 20 μl of an AMP detection solution (a mixture of AMP-Glo II reagent and Kinase-Gio at a ratio of 1:100) was added and stored at room. temperature for 1 hour. Luminescence signals were measured using a Victor plate reader (Perkin Elmer). The maximal activity control (containing enzymes and substrates only in the presence of 1% DMSO; MAX) and the minimal activity control (containing substrates and 1% DMSO; MIN) were evaluated simultaneously. In each experiment, serially diluted reference ENPP1 inhibitors were tested together. IC50, indicating % residual activity versus compound concentration was determined by fitting inhibition curves using the 3-parameter analysis of GraphPad Prism software. Serially diluted samples of one compound were tested two or more times and an average IC50 of each compound was calculated.

| IC50 [nM] | Compound |
| --- | --- |
| ≥ 1000 | COc1cc2c(-c3ccc(CNS(=N)(=O)O)cc3)nn(C)c(=O)c2cc1OC [US20230159469, Example 108] |
| < 1000 | NS(=O)(=O)Nc1cccc(-c2n[nH]c(=O)c3ccccc23)c1 [US20230159469, Example 87] |
| < 1000 | N=S(=O)(O)NCc1ccc(-c2n[nH]c(=O)c3ccccc23)cc1 [US20230159469, Example 96] |
